Experimental data reported in PubChem BioAssay (NCI).
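All cell lines were grown in 96-well plates and treated with compound for 48 hours. TGI denotes the concentration required for complete inhibition of growth.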

What was measured:
Assay in all cases: NCI tumour cell line growth inhibition, 48 h
[1] = test system: DMS 114 small cell lung
[2] = test system: HL-60(TB) leukemia
[3] = test system: SF-539 CNS
[4] = test system: LXFL 529 NSCLC
[5] = test system: OVCAR-8 ovarian
[6] = test system: SF-268 CNS
[7] = test system: HCT-116 colon
[8] = test system: 786-0 renal
[9] = test system: SK-MEL-5 melanoma
[10] = test system: TK-10 renal
[11] = test system: KM12 colon
[12] = test system: SN12C renal
[13] = test system: KM20L2 colon
[14] = test system: SF-295 CNS
[15] = test system: NCI-H522 lung
[16] = test system: SK-MEL-2 melanoma
[17] = test system: CAKI-1 renal
[18] = test system: M14 melanoma
[19] = test system: SK-OV-3 ovarian
[20] = test system: UO-31 renal
[21] = test system: U251 CNS
[22] = test system: A498 renal
[23] = test system: NCI-H226 lung
[24] = test system: UACC-257 melanoma
[25] = test system: RXF-631 renal
[26] = test system: OVCAR-5 ovarian
[27] = test system: HOP-62 NSCLC
[28] = test system: M19-MEL melanoma
[29] = test system: ACHN renal
[30] = test system: CCRF-CEM leukemia
[31] = test system: NCI-H23 lung
[32] = test system: HCC-2998 colon
[33] = test system: COLO 205 colon
[34] = test system: SNB-75 CNS
[35] = test system: DMS 273 small cell lung
[36] = test system: OVCAR-4 ovarian
[37] = test system: HOP-18 NSCLC
[38] = test system: SK-MEL-28 melanoma
[39] = test system: HOP-92 NSCLC
[40] = test system: K-562 leukemia
[41] = test system: XF 498 CNS
[42] = test system: SNB-78 CNS
[43] = test system: SR leukemia
[44] = test system: NCI-H460 lung
[45] = test system: HCT-15 colon
[46] = test system: IGROV1 ovarian
[47] = test system: RPMI-8226 leukemia
[48] = test system: SNB-19 CNS
[49] = test system: EKVX NSCLC
[50] = test system: HT29 colon
[51] = test system: SW-620 colon
[52] = test system: MALME-3M melanoma
[53] = test system: MOLT-4 leukemia
[54] = test system: UACC-62 melanoma
[55] = test system: OVCAR-3 ovarian
[56] = test system: DLD-1 colon
[57] = test system: A549 NSCLC
[58] = test system: LOX IMVI melanoma

Work on `Cc1ccc(NC(=O)CCC(=O)C2CC(=O)CC/C2=N\NC(=O)c2cc3ccccc3cc2O)cc1C` (configuration not stated) yielded a TGI [1] of 51.6 µM, a TGI [2] of 29.9 µM and a TGI [3] of 87.3 µM. For the same compound, the TGI [4] was > 100 µM, the TGI [5] was > 100 µM and the TGI [6] was > 100 µM. The TGI [7] was > 100 µM, the TGI [8] was > 100 µM and the TGI [9] was 29.6 µM. For the same compound, the TGI [10] was > 100 µM, the TGI [11] was > 100 µM and the TGI [12] was > 100 µM. The TGI [13] was 87.9 µM, the TGI [14] was > 100 µM and the TGI [15] was 39.5 µM. The TGI [16] was 82.7 µM, the TGI [17] was > 100 µM and the TGI [18] was 88.9 µM. The TGI [19] was > 100 µM, the TGI [20] was 59.3 µM and the TGI [21] was > 100 µM. For the same compound, the TGI [22] was > 100 µM, the TGI [23] was 97.2 µM and the TGI [24] was 61.7 µM. The TGI [25] was > 100 µM, the TGI [26] was 56.8 µM and the TGI [27] was > 100 µM. The TGI [28] was 90.7 µM, the TGI [29] was > 100 µM and the TGI [30] was 58.3 µM. For the same compound, the TGI [31] was 38 µM, the TGI [32] was 50.1 µM and the TGI [33] was 33.3 µM. The TGI [34] was > 100 µM, the TGI [35] was 43.1 µM and the TGI [36] was 51.4 µM. For the same compound, the TGI [37] was > 100 µM, the TGI [38] was > 100 µM and the TGI [39] was > 100 µM. For the same compound, the TGI [40] was > 100 µM, the TGI [41] was 99 µM and the TGI [42] was > 100 µM. The TGI [43] was 97.4 µM, the TGI [44] was > 100 µM and the TGI [45] was > 100 µM. For the same compound, the TGI [46] was 66.9 µM, the TGI [47] was > 100 µM and the TGI [48] was > 100 µM. The TGI [49] was 99.6 µM, the TGI [50] was > 100 µM and the TGI [51] was > 100 µM. The TGI [52] was 90.2 µM, the TGI [53] was 99.6 µM and the TGI [54] was 33.9 µM. The TGI [55] was 45.6 µM, the TGI [56] was > 100 µM and the TGI [57] was > 100 µM.

With `COC(=O)C12CC(C3CC31)C1CC12` (configuration not stated) the TGI [1] was > 100 µM, the TGI [2] was > 100 µM and the TGI [58] was > 100 µM. For the same compound, the TGI [4] was > 100 µM, the TGI [5] was > 100 µM and the TGI [6] was > 100 µM. For the same compound, the TGI [7] was > 100 µM, the TGI [8] was > 100 µM and the TGI [9] was > 100 µM. The TGI [10] was > 100 µM, the TGI [12] was > 100 µM and the TGI [13] was > 100 µM. The TGI [14] was > 100 µM, the TGI [17] was > 100 µM and the TGI [18] was > 100 µM. For the same compound, the TGI [19] was > 100 µM, the TGI [20] was > 100 µM and the TGI [21] was > 100 µM. The TGI [22] was > 100 µM, the TGI [23] was > 100 µM and the TGI [24] was > 100 µM. The TGI [25] was > 100 µM, the TGI [26] was > 100 µM and the TGI [27] was > 100 µM. The TGI [28] was > 100 µM, the TGI [29] was > 100 µM and the TGI [30] was > 100 µM. The TGI [31] was > 100 µM, the TGI [32] was > 100 µM and the TGI [33] was > 100 µM. For the same compound, the TGI [35] was > 100 µM, the TGI [36] was > 100 µM and the TGI [37] was > 100 µM. The TGI [38] was > 100 µM, the TGI [39] was > 100 µM and the TGI [40] was > 100 µM. The TGI [43] was > 100 µM, the TGI [44] was > 100 µM and the TGI [45] was > 100 µM. For the same compound, the TGI [46] was > 100 µM, the TGI [47] was > 100 µM and the TGI [48] was > 100 µM. For the same compound, the TGI [50] was > 100 µM, the TGI [51] was > 100 µM and the TGI [52] was > 100 µM. The TGI [53] was > 100 µM, the TGI [54] was > 100 µM and the TGI [55] was > 100 µM. The TGI [56] was > 100 µM and the TGI [57] was > 100 µM.
